Like-named read-outs stand apart in the source and are kept apart here.
Assays:
[1] = target: FGF receptor (FGFr) (Homo sapiens, UniProt P11362); test: FGFr tyrosine kinase activity, poly E4Y and 32P-ATP; type: biochemical
Protocol: Recombinant human Src was expressed using the baculovirus-insect cell system and purified as published (Budde et al., 1993 and 2000). Recombinant Csk and the FGF receptor (FGFr) were expressed as glutathione-S-transferase fusion proteins using the pGEX expression vector and E. coli, and purified as described (Sun & Budde, 1995). The tyrosine kinase activity of Src, Csk and FGFr was determined using poly E4Y and ^32P-ATP. Briefly, enzymes were assayed in a reaction mixture consisting of 0.15 M EPPS-NaOH (pH 8.0) with 6 mM MgCl2, 0.2 mM γ^32P-ATP (0.2-0.4 mCi/μmol), 10% glycerol, 0.1% Triton X-100, and poly E4Y. Poly E4Y is a synthetic peptide whose phosphorylation is measured in this assay by the addition of the radioactively labeled phosphate from the ATP (Budde et al., 1995). […] When ATP was varied (0, 50, 100 and 250 μM), poly E4Y was kept constant at 150 μg/ml. […] From this screening, the thienopyrimidine-based scaffold was identified as one of the chemical structures to pursue. […] These analogues were screened against Src, Csk and FGFr (Table 2, Table 3, and Table 4).

[2] = target: T1, Csk (Homo sapiens, UniProt P41240); test: Csk tyrosine kinase activity, poly E4Y and 32P-ATP; type: biochemical
T1 construct: GST (glutathione-S-transferase) (N); made in house; host or cells: E. coli (pGEX vector)
Summary of the method: (§1)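 Recombinant GST-Csk (E. coli) or baculovirus-expressed human Src assayed on poly E4Y in 0.15 M EPPS-NaOH pH 8.0, 6 mM MgCl2, 0.2 mM γ32P-ATP, 10% glycerol, 0.1% Triton X-100. Read-out is 32P incorporation into poly E4Y; for ATP variation (0–250 μM), poly E4Y held at 150 μg/ml.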

[3] = target: T2, Recombinant human Src (Homo sapiens, UniProt P12931); test: Src tyrosine kinase activity, poly E4Y and 32P-ATP; type: biochemical
T2 construct: made in house; host or cells: baculovirus-insect cell system
Summary of the method: as §1

[4] = target: T3, N12 neuronal Src variant (Homo sapiens, UniProt P12931); test: Testing against neuronal Src variant N12; type: biochemical; details: Table 5
T3 construct: made in house
Protocol: (§2) The tyrosine kinase activity of Src, Csk and FGFr was determined using poly E4Y and ^32P-ATP. Briefly, enzymes were assayed in a reaction mixture consisting of 0.15 M EPPS-NaOH (pH 8.0) with 6 mM MgCl2, 0.2 mM γ^32P-ATP (0.2-0.4 mCi/μmol), 10% glycerol, 0.1% Triton X-100, and poly E4Y. Poly E4Y is a synthetic peptide whose phosphorylation is measured in this assay by the addition of the radioactively labeled phosphate from the ATP (Budde et al., 1995). […] When ATP was varied (0, 50, 100 and 250 μM), poly E4Y was kept constant at 150 μg/ml.
(§3) Thienopyrimidine-based compounds were also tested against neuronal Src variants (Table 5).

[5] = target: T4, N23 neuronal Src variant (Homo sapiens, UniProt P12931); test: Testing against neuronal Src variant N23; type: biochemical; details: Table 5
T4 construct: made in house
Protocol: as §2, §3

[6] = test system: osteoclastic bone resorption; details: Rodan and Martin, 2000; cited from earlier work
[7] = Table 4, NI = no inhibition upto 50 ug/mL
[8] = screening assay, 50 μg/ml poly E4Y, 0.2 mM 32P-ATP
[9] = Table 2, read-out: Src IC50 (especially good inhibitors of Src)
[10] = Table 5, N6 = Src, read-out: N6(Src) IC50
[11] = read-out: IC50 (preferred compounds for treatment of Src family-related disease)

Sequence of FGF receptor (FGFr) (P11362 398-822): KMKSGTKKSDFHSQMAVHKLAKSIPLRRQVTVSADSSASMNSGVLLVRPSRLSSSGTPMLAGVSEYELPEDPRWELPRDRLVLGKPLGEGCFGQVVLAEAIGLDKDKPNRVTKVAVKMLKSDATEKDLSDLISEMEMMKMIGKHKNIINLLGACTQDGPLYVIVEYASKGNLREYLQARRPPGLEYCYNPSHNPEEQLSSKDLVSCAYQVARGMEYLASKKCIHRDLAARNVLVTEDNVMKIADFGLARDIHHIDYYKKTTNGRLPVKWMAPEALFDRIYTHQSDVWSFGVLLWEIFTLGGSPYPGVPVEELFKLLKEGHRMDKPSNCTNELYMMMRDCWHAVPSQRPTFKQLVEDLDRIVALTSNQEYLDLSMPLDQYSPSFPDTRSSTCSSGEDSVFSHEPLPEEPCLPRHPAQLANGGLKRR

| IC50 [2, 8] | IC50 [3, 9] | IC50 [3, 11] | Compound | further results |
| --- | --- | --- | --- | --- |
| > 133000 nM | ≤ 2000 nM | < 2000 nM | COc1cccc(-c2sc3c(NN=Cc4cccnc4)ncnc3c2C)c1 [Compound 426, 3-Pyridinecarboxaldehyde(6-(3-methoxyphenyl)-7-methylthieno[3,2-d]pyrimidin-4-yl)hydrazone] | – |
| > 131000 nM | ≤ 2000 nM | < 2000 nM | COc1cccc(-c2sc3c(NN=Cc4cccs4)ncnc3c2C)c1 [Compound 428, 2-Thiophenecarboxaldehyde(6-(3-methoxyphenyl)-7-methylthieno[3,2-d]pyrimidin-4-yl)hydrazone] | – |
| > 119000 nM | ≤ 2000 nM | < 2000 nM | COc1cccc(-c2sc3c(NN=Cc4ccc(OC)c(O)c4)ncnc3c2C)c1 [Compound 429, 3-Hydroxy-4-methoxybenzaldehyde(6-(3-methoxyphenyl)-7-methylthieno[3,2-d]pyrimidin-4-yl)hydrazone] | – |
| > 133000 nM | ≤ 2000 nM | < 2000 nM | COc1ccccc1-c1sc2c(NN=Cc3cccnc3)ncnc2c1C [Compound 432, 3-Pyridinecarboxaldehyde(6-(2-methoxyphenyl)-7-methylthieno[3,2-d]pyrimidin-4-yl)hydrazone] | – |
| > 133000 nM | ≤ 2000 nM | < 2000 nM | Cc1c(-c2ccc(CO)cc2)sc2c(NN=Cc3cccnc3)ncnc12 [Compound 436, 3-Pyridinecarboxaldehyde(6-(4-hydroxymethylphenyl)-7-methylthieno[3,2-d]pyrimidin-4-yl)hydrazone] | – |
| > 131000 nM | ≤ 2000 nM | < 2000 nM | Cc1c(-c2ccc(CO)cc2)sc2c(NN=Cc3cccs3)ncnc12 [Compound 438, 2-Thiophenecarboxaldehyde(6-(4-hydroxymethylphenyl)-7-methylthieno[3,2-d]pyrimidin-4-yl)hydrazone] | – |
| > 119000 nM | ≤ 2000 nM | < 2000 nM | COc1ccc(C=NNc2ncnc3c(C)c(-c4ccc(CO)cc4)sc23)cc1O [Compound 439, 3-Hydroxy-4-methoxybenzaldehyde(6-(4-hydroxymethylphenyl)-7-methylthieno[3,2-d]pyrimidin-4-yl)hydrazone] | – |
| > 131000 nM | ≤ 2000 nM | < 2000 nM | Cc1c(-c2cccc(CO)c2)sc2c(NN=Cc3cccs3)ncnc12 [Compound 442, 2-Thiophenecarboxaldehyde(6-(3-hydroxymethylphenyl)-7-methylthieno[3,2-d]pyrimidin-4-yl)hydrazone] | – |
| > 135000 nM | ≤ 2000 nM | < 2000 nM | Cc1c(/C=C/c2ccccc2)sc2c(NN=Cc3cccnc3)ncnc12 [Compound 447, 3-Pyridinecarboxaldehyde(7-methyl-6-(trans-2-phenylvinyl)-thieno[3,2-d]pyrimidin-4-yl)hydrazone] | – |
| – | ≤ 2000 nM | < 2000 nM | COc1ccc(C=NNc2ncnc3c(C)c(C(Cc4ccccc4)c4ccccc4)sc23)cc1O (stereo not drawn) [Compound 475, 3-Hydroxy-4-methoxybenzaldehyde(6-(1-benzyl-1-phenyl)methyl-7-methylthieno[3,2-d]pyrimidin-4-yl)hydrazone] | IC50 ([2]; poly E4Y and 32P-ATP): > 101000 nM |

Further lines, the compound ahead of its results:

| Compound | IC50 [2, 8] | IC50 [3, 9] | IC50 [3, 11] | further results |
| --- | --- | --- | --- | --- |
| 1-Hydroxy-1-methyl-1,1-di-[3-hydroxy-4-methoxybenzaldehyde(7-methylthieno[3,2-d]pyrimidin-4-yl)hydrazone]methane [Compound 502] | – | – | – | FGFr IC50 [1, 7]: NI (NI = no inhibition upto 50 ug/mL); Csk IC50 [2, 7]: NI (NI = no inhibition upto 50 ug/mL); IC50 ([3]; Table 4, read-out: Src IC50): 8700 nM |
| 1-Hydroxy-1-methyl-1,1-di-[4-carboxybenzaldehyde(7-methylthieno[3,2-d]pyrimidin-4-yl)hydrazone]methane [Compound 500] | – | – | – | FGFr IC50 [1, 7]: NI (NI = no inhibition upto 50 ug/mL); IC50 [2, 7]: 57000 nM; IC50 ([3]; Table 4, read-out: Src IC50): 5300 nM |
| Cc1csc2c(NN=Cc3ccc(C(F)(F)F)cc3)ncnc12 [Compound 9, 4-Trifluoromethylbenzaldehyde(7-methylthieno[3,2-d]pyrimidin-4-yl)hydrazone] | – | – | – | FGFr IC50 [1, 8]: NI (NI = no inhibition up to 50 ug/mL); Csk IC50 [2, 8]: NI (NI = no inhibition up to 50 ug/mL) |
| Cc1csc2c(NN=Cc3cccs3)ncnc12 [Compound 29, 2-Thiophenecarboxaldehyde(7-methylthieno[3,2-d]pyrimidin-4-yl)hydrazone] | > 182000 nM | ≤ 2000 nM | < 2000 nM | IC50 [4]: 1170 nM; IC50 [3, 10]: 950 nM; IC50 [5]: 840 nM |
| COc1ccc(C=NNc2ncnc3c(C)csc23)cc1O [Compound 51, 3-Hydroxy-4-methoxybenzaldehyde(7-methylthieno[3,2-d]pyrimidin-4-yl)hydrazone] | – | ≤ 2000 nM | < 2000 nM | IC50 [4]: 1750 nM; IC50 [3, 10]: 510 nM; IC50 [5]: 510 nM |
| Cc1csc2c(NN=Cc3cccc(Br)c3)ncnc12 [Compound 57, 3-Bromobenzaldehyde(7-methylthieno[3,2-d]pyrimidin-4-yl)hydrazone] | – | – | – | FGFr IC50 [1, 8]: NI (NI = no inhibition up to 50 ug/mL); Csk IC50 [2, 8]: NI (NI = no inhibition up to 50 ug/mL) |
| C(=NNc1ncnc2cc(-c3ccccc3)sc12)c1cccnc1 [Compound 199, 3-Pyridinecarboxaldehyde(6-phenylthieno[3,2-d]pyrimidin-4-yl)hydrazone] | > 151000 nM | ≤ 2000 nM | < 2000 nM | IC50 [4]: 230 nM; IC50 [3, 10]: 150 nM; IC50 [5]: 120 nM |
| C(=NNc1ncnc2cc(-c3ccsc3)sc12)c1cccnc1 [Compound 223, 3-Pyridinecarboxaldehyde(6-(3-thienyl)thieno[3,2-d]pyrimidin-4-yl)hydrazone] | – | – | – | FGFr IC50 [1, 8]: NI (NI = no inhibition up to 50 ug/mL); Csk IC50 [2, 8]: NI (NI = no inhibition up to 50 ug/mL) |
| COc1ccc(C=NNc2ncnc3cc(I)sc23)cc1O [Compound 397, 3-Hydroxy-4-Methoxybenzaldehyde(6-iodothieno[3,2-d]pyrimidin-4-yl)hydrazone] | > 117000 nM | ≤ 2000 nM | < 2000 nM | – |
| COc1ccc(-c2cc3ncnc(NN=Cc4ccc(OC)c(O)c4)c3s2)cc1 [Compound 408, 3-Hydroxy-4-methoxybenzaldehyde(6-(4-methoxyphenyl)thieno[3,2-d]pyrimidin-4-yl)hydrazone] | > 123000 nM | ≤ 2000 nM | < 2000 nM | – |
| COc1ccc(-c2sc3c(NN=Cc4cccnc4)ncnc3c2C)cc1 [Compound 422, 3-Pyridinecarboxaldehyde(6-(4-methoxyphenyl)-7-methylthieno[3,2-d]pyrimidin-4-yl)hydrazone] | > 133000 nM | ≤ 2000 nM | < 2000 nM | – |
| COc1ccc(-c2sc3c(NN=Cc4ccc(OC)c(O)c4)ncnc3c2C)cc1 [Compound 425, 3-Hydroxy-4-methoxybenzaldehyde(6-(4-methoxyphenyl)-7-methylthieno[3,2-d]pyrimidin-4-yl)hydrazone] | > 119000 nM | ≤ 2000 nM | < 2000 nM | – |
| CCO.Cc1csc2c(NN=Cc3cccnc3)ncnc12.Cc1csc2c(NN=Cc3cccnc3)ncnc12 [Compound 499] | – | – | – | FGFr IC50 [1, 7]: NI (NI = no inhibition upto 50 ug/mL); Csk IC50 [2, 7]: NI (NI = no inhibition upto 50 ug/mL); IC50 ([3]; Table 4, read-out: Src IC50): 8600 nM |
| CCO.Cc1csc2c(NN=Cc3cccs3)ncnc12.Cc1csc2c(NN=Cc3cccs3)ncnc12 [Compound 501] | – | – | – | FGFr IC50 [1, 7]: NI (NI = no inhibition upto 50 ug/mL); Csk IC50 [2, 7]: NI (NI = no inhibition upto 50 ug/mL); IC50 ([3]; Table 4, read-out: Src IC50): 10700 nM |
| CO[C@H]1[C@@H](OC)C[C@H](C)[C@@H](OC)C2=CC(=O)C=C(NC(=O)/C(C)=C/C=C\[C@H](OC)[C@@H](OC(N)=O)/C(C)=C/[C@@H]1C)C2=O [Herbimycin A] | – | – | – | osteoclastic bone resorption in vivo [6]: inhibits osteoclastic bone resorption |

Reference: patent publication US7285556B2, “Thienopyrimidine-based inhibitors of the src family” (Board of Regents, The University of Texas Systems, priority 2000, dated 2007)
